Assay results published in patent US11926583B2, “Stabilized 1, 25-dihydroxyvitamin D2 and method of making same” (CYTOCHROMA INC., priority 2008, dated 2024).

Assay: Accelerated stability testing at 60° C., purity by HPLC
Format: physicochemical
Conditions: for Purity (absolute %) / Purity (% of initial amount): At 60° C.
Protocol: The HPLC analysis can suitably follow the parameters in Table 2 below.
Samples of stabilized 1,25-dihydroxyvitamin D2 according to Example 1 and commercially-obtained 1,25-dihydroxyvitamin D2 (SAFC, Madison, Wis. USA) made by crystallization from methyl formate were placed in a 60° C. oven in several 2 ml amber vials with Teflon-lined caps. Samples were taken out at different time points and purity was checked by HPLC according to Example 1. The results are presented in Tables 3 and 4 below and in FIGS. 1 and 2. […] The stabilized material prepared according to the Example 1 will clearly have advantage when any heat is required during formulation.

| Structure (SMILES) | Purity (absolute %) (0 h) | Purity (% of initial amount) (4 h) | Purity (absolute %) (4 h) | Purity (% of initial amount) (8 h) | Purity (absolute %) (8 h) | Purity (% of initial amount) (16 h) | Purity (absolute %) (16 h) | Purity (% of initial amount) (24 h) | Purity (absolute %) (24 h) | Purity (% of initial amount) (48 h) | Purity (absolute %) (48 h) | Purity (% of initial amount) (72 h) | Purity (absolute %) (72 h) | Purity (% of initial amount) (Initial %) | Stability compared to commercially available material containing residual methyl formate (60° C., up to 72 hours) |
| --- | --- | --- | --- | --- | --- | --- | --- | --- | --- | --- | --- | --- | --- | --- | --- |
| C=C1/C(=C\C=C2/CCC[C@]3(C)[C@@H]([C@H](C)/C=C/[C@H](C)C(C)(C)O)CC[C@@H]23)C[C@@H](O)C[C@@H]1O [Commercial, 1,25-dihydroxyvitamin D2] | 96.80% | 98.33% | 95.18% | 98.12% | 94.98% | 97.82% | 94.69% | 97.09% | 93.98% | 96.97% | 93.86% | 96.92% | 93.82% | 100% | – |
| C=C1/C(=C\C=C2/CCC[C@]3(C)[C@@H]([C@H](C)/C=C/[C@H](C)C(C)(C)O)CC[C@@H]23)C[C@@H](O)C[C@@H]1O [Example 1, 1,25-dihydroxyvitamin D2] | 99.40% | 99.98% | 99.38% | 100% | 99.42% | 99.93% | 99.33% | 100% | 99.42% | 99.90% | 99.31% | 99.50% | 98.89% | – | surprisingly more stable |
